Assay results reported in publication PMC7594079, “Insights into the Function and Evolution of Taste 1 Receptor Gene Family in the Carnivore Fish Gilthead Seabream (Sparus aurata)” (International Journal of Molecular Sciences, 2020).

What was measured:
saT1R2b/R3 = molecular target: T1, saT1R2b/R3 (Sparus aurata, UniProt A0A671TG56+A0A671VZB3); experiment: saT1R2b/R3 heterodimer transiently transfected in stable pGL3-NFAT-luc-HEK293 (Cl.3) cells, luciferase reporter; format: cell-based; details: for T1R2b/R3 [MSD] maximum stimulation dose: as molarity, decimal comma
T1 sequence (A0A671TG56 20-821): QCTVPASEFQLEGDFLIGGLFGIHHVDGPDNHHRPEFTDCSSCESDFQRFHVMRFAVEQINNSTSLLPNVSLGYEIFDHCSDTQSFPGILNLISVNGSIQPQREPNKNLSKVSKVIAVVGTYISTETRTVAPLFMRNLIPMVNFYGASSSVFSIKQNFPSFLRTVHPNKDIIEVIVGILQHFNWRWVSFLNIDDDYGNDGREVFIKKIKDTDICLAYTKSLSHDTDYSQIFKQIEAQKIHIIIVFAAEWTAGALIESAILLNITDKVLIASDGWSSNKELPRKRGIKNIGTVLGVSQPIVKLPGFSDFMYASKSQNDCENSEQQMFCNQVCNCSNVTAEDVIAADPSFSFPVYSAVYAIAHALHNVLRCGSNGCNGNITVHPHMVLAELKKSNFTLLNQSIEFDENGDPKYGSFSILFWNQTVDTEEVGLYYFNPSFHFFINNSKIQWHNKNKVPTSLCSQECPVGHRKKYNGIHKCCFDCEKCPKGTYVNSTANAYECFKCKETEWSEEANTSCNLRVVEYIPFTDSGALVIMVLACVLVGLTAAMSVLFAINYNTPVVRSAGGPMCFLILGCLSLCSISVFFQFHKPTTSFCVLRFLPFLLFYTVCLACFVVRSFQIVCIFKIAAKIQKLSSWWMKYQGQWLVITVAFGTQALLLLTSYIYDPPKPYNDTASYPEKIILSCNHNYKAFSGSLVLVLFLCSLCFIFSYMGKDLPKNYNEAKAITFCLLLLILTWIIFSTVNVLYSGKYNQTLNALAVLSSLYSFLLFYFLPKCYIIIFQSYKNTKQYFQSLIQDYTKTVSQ
T1 sequence (A0A671VZB3 24-860): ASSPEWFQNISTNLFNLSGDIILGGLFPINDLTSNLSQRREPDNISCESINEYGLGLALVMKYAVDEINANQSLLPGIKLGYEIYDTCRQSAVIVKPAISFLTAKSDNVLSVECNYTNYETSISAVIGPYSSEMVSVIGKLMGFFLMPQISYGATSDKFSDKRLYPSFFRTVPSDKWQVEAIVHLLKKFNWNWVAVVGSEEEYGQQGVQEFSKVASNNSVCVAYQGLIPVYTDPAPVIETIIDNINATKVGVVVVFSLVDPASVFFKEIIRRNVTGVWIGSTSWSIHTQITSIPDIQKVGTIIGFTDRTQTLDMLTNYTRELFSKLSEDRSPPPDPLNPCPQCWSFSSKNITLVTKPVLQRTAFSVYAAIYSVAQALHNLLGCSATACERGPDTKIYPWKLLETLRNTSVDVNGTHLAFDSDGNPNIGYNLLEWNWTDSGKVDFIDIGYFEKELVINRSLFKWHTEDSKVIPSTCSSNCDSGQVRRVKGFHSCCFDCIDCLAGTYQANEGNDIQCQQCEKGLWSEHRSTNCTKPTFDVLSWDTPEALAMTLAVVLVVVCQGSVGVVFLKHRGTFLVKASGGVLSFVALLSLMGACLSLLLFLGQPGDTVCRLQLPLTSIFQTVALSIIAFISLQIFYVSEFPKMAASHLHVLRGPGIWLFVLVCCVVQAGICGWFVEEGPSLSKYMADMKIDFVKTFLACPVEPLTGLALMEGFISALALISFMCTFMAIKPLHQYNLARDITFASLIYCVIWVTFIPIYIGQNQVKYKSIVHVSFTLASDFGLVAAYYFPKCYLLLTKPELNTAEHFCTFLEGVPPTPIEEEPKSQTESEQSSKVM
Excerpt: Figure 6 Amino acid Log-dose response curves of activation in heterologous co-transfected (Cl.3) cells with saT1R1/3 (green dots), saT1R2a/3 (red squares) and saT1R2b/3 (black triangles) heterodimers. Evaluation of L-AA responses was based on the RLU mean ± SEM of four independent determinations normalized to the mean response of the same transfections stimulated with reduced assay medium (Basal Medium Eagle w/o L-glutamate (BME) + 1% FBS), and expressed as the percentage relative to basal levels (BL).
HEK293 cells were cultured in standard medium DMEM (Gibco, Thermo Fisher, Saint Louis, MO, USA) containing 10% FBS, penicillin (100 U/mL) and streptomycin ([…]) at 37 °C, with a humidified atmosphere at 5% CO2. pGL3-NFAT-luc-HEK293 stable clones were generated by co-transfections of pGL3-NFAT-luc and tgCMV/HyTK plasmids (50:1), the latter harboring the hygromycin phosphotransferase gene, using Lipofectamine LTX according to supplier’s protocols (Thermo Fisher, Saint Louis, MO, USA). Initially, HEK293 cells were selected using DMEM containing 400 μg/mL hygromycin B (Sigma, Darmstadt, Germany) in 24-well plates for two weeks; 24 colonies were further grown out in 96-well plates under reduced hygromycin selection (200 µg/mL) for three weeks. Potentially resistant NFAT-luc-HEK293 clones (n = 22) were validated after incubation in assay medium (DMEM + 1% FBS) containing PMA or Ionomycin (Sigma, Darmstadt, Germany) for 18 h (triplicates, 50,000 cells/well). Luciferase activity was quantified with ONE-Glo™ EX Reagent Kit (Promega, Madison, WI, USA) using a 96-microplate TECAN reader (Trading AG, Switzerland).
(§1) saT1Rs (saT1R1, saT1R2a, saT1R2b saT1R3) and saGαi1-2 genes were RT-PCR amplified using 5’ and 3’ flanking primers carrying HindIII and XhoI restriction sites, respectively. Gel-purified fragments were cloned into pGEM-T Easy vectors, re-sequenced, digested and subcloned into pcDNA™3 (Invitrogen, Carlsbad, CA, USA). Effective saT1R cloning into pcDNA™3 was further verified by HindIII/XhoI digestion. Transient co-transfections were done in 6-well plates (confluence ~70–80%) using 100 μL of reduced serum medium (Opti-MEM, Gibco, Thermo Fisher, Saint Louis, MO, USA) containing 150 ng of each selected pcDNA™3 construct, 1:10 charge ratio of Enhanced Green Fluorescent expressing construct (EGFP; positive control), and pBluescript II SK (+) vector DNA (Addgene, Watertown, MA, USA) up to 1 µg of totally transfected DNA. Following 24 h incubation, cells were washed with fresh standard medium and plated in polylysine treated plates for additional 24 h. Cells were then stimulated with L-AAs and sugar compounds for 18 h in a reduced assay medium (BME w/o L-glutamate; Gibco, Thermo Fisher, Saint Louis, MO, USA) + 1% FBS), to prevent unspecific Ca^2+/NFAT signaling activation and potential saT1R desensitization. All L-AAs and sugars used for in vitro experiments were obtained from Merck KGaA (Darmstadt, Germany).

[1] = tested on: saT1R1/R3, saT1R2a/R3 and saT1R2b/R3; experiment: Screen of 20 L-AAs for dose-response activation of the three saT1R heterodimers in Cl.3 cells; format: cell-based, Sparus aurata; details: up to eight concentrations, 10 nM to 100 mM
Description: as §1

Structure (SMILES)	T1R2b/R3 [MSD] maximum stimulation dose (saT1R2b/R3)	dose-response activation for at least one of the three saT1R heterodimers [1]	concentration with significant activation (saT1R2b/R3; saT1R2b/R3, tested 1–500 mM) [mM]
NC(=O)CC[C@H](N)C(=O)O [Gln, Glutamine]	1,00 × 10^-1 M	generated a dose-response activation	
NCCCC[C@H](N)C(=O)O [Lys, Lysine]	1,00 × 10^-3 M	did not respond in a dose-response manner	
NC(=O)C[C@H](N)C(=O)O [Asn, Asparagine]	1,00 × 10^-1 M	did not respond in a dose-response manner	
N[C@@H](Cc1c[nH]c2ccccc12)C(=O)O [Trp, Tryptophan]	1,00 × 10^-3 M	did not respond in a dose-response manner	
N[C@@H](Cc1c[nH]cn1)C(=O)O [His, Histidine]	1,00 × 10^-5 M	did not respond in a dose-response manner	
CC(C)C[C@H](N)C(=O)O [Leu, Leucine]	1,00 × 10^-1 M	generated a dose-response activation	
NCC(=O)O [Gly, Glycine]	1,00 × 10^-1 M	generated a dose-response activation	
N[C@@H](CS)C(=O)O [Cys, Cysteine]	1,00 × 10^-4 M	did not respond in a dose-response manner	
N[C@@H](CC(=O)O)C(=O)O [Asp, Aspartic acid]	1,00 × 10^-5 M	did not respond in a dose-response manner	
N[C@@H](Cc1ccccc1)C(=O)O [Phe, Phenylalanine]	1,00 × 10^-2 M	did not respond in a dose-response manner	
CSCC[C@H](N)C(=O)O [Met, Methionine]	1,00 × 10^-1 M	generated a dose-response activation	
CC(C)[C@H](N)C(=O)O [Val, Valine]	1,00 × 10^-1 M	generated a dose-response activation	
O=C(O)[C@@H]1CCCN1 [Pro, Proline]	1,00 × 10^-1 M	generated a dose-response activation	
N[C@@H](CCC(=O)O)C(=O)O [Glu, Glutamic acid]	1,00 × 10^-2 M	generated a dose-response activation	
C[C@@H](O)[C@H](N)C(=O)O [Thr, Threonine]	1,00 × 10^-1 M	generated a dose-response activation	
N=C(N)NCCC[C@H](N)C(=O)O [Arg, Arginine]	1,00 × 10^-5 M	did not respond in a dose-response manner	
CC[C@H](C)[C@H](N)C(=O)O [Ile, Isoleucine]	1,00 × 10^-1 M	generated a dose-response activation	
C[C@H](N)C(=O)O [Ala, Alanine]	1,00 × 10^-1 M	generated a dose-response activation	
N[C@@H](Cc1ccc(O)cc1)C(=O)O [Tyr, Tyrosine]	1,00 × 10^-3 M	did not respond in a dose-response manner	
N[C@@H](CO)C(=O)O [Ser, Serine]	1,00 × 10^-1 M	generated a dose-response activation	
OC[C@H]1OC(O)[C@H](O)[C@@H](O)[C@@H]1O (stereo partly drawn) [D-Glucose]			200
